Source: US8735424B2 (Novartis AG, priority 2008, dated 2014)
Blank lines part the entries; values can stand above or below the molecule they belong to.

Experiments:
[1] = target: PIM3 (Homo sapiens, UniProt Q86V86); test: Pim3 ATP depletion assay; type: biochemical; conditions: 40 μM ATP
Method: The activity of PIM3 is measured using a luciferase-luciferin based ATP detection reagent to quantify ATP depletion resulting from kinase-catalyzed phosphoryl transfer to a peptide substrate. Compounds to be tested are dissolved in 100% DMSO and directly distributed into white 384-well plates at 0.5 μl per well. To start the reaction, 10 μl of 10 nM Pim3 kinase and 200 μM BAD peptide (RSRHSSYPAGT-OH) in assay buffer (50 mM HEPES pH 7.5, 5 mM MgCl2, 1 mM DTT, 0.05% BSA) is added into each well. After 15 minutes, 10 μl of 80 μM ATP in assay buffer is added. Final assay concentrations are 5 nM PIM1, 40 μM ATP, 100 μM BAD peptide and 2.5% DMSO. The reaction is performed until approximately 50% of the ATP is depleted, then stopped by the addition of 20 μl KinaseGlo Plus (Promega Corporation) solution. The stopped reaction is incubated for 10 minutes and the remaining ATP detected via luminescence on the Victor2 (Perkin Elmer).

[2] = target: PIM1 (Homo sapiens, UniProt P11309); test: Pim1 ATP depletion assay; type: biochemical; conditions: 20 μM ATP, 2.5 nM PIM1
Method: The activity of PIM1 is measured using a luciferase-luciferin based ATP detection reagent to quantify ATP depletion resulting from kinase-catalyzed phosphoryl transfer to a peptide substrate. Compounds to be tested are dissolved in 100% DMSO and directly distributed into white 384-well plates at 0.5 μl per well. To start the reaction, 10 μl of 5 nM Pim1 kinase and 80 μM BAD peptide (RSRHSSYPAGT-OH) in assay buffer (50 mM HEPES pH 7.5, 5 mM MgCl2, 1 mM DTT, 0.05% BSA) is added into each well. After 15 minutes, 10 μl of 40 μM ATP in assay buffer is added. Final assay concentrations are 2.5 nM PIM1, 20 μM ATP, 40 μM BAD peptide and 2.5% DMSO. The reaction is performed until approximately 50% of the ATP is depleted, then stopped with the addition of 20 μl KinaseGlo Plus (Promega Corporation) solution. The stopped reaction is incubated for 10 minutes and the remaining ATP detected via luminescence on the Victor2 (Perkin Elmer). […] IC50, the half maximal inhibitory concentration, represents the concentration of a test compound that is required for 50% inhibition of its target in vitro.

[3] = target: PIM2 (Homo sapiens, UniProt Q9P1W9); test: Pim2 ATP depletion assay; type: biochemical; conditions: 4 μM ATP, 5 nM PIM2
Method: The activity of PIM2 is measured using a luciferase-luciferin based ATP detection reagent to quantify ATP depletion resulting from kinase-catalyzed phosphoryl transfer to a peptide substrate. Compounds to be tested are dissolved in 100% DMSO and directly distributed into white 384-well plates at 0.5 μl per well. To start the reaction, 10 μl of 10 nM Pim2 kinase and 20 μM BAD peptide (RSRHSSYPAGT-OH) in assay buffer (50 mM HEPES pH 7.5, 5 mM MgCl2, 1 mM DTT, 0.05% BSA) is added into each well. After 15 minutes, 10 μl of 8 μM ATP in assay buffer is added. Final assay concentrations are 5 nM PIM2, 4 μM ATP, 10 μM BAD peptide and 2.5% DMSO. The reaction is performed until approximately 50% of the ATP is depleted, then stopped with the addition of 20 μl KinaseGlo Plus (Promega Corporation) solution. The stopped reaction is incubated for 10 minutes and the remaining ATP detected via luminescence on the Victor2 (Perkin Elmer).

[4] = tested on: KMS11 cells; test: Cell proliferation assay (CellTiter-Glo); type: cell-based; conditions: KMS-11, 72 h; KMS11 human myeloma cell line, 3 days
Method: KMS11 (human myeloma cell line), were cultured in IMDM supplemented with 10% FBS, sodium pyruvate and antibiotics. Cells were plated in the same medium at a density of 2000 cells per well into 96 well tissue culture plates, with outside wells vacant, on the day of assay. MM1.s (human myeloma cell line), were cultured in RPMI1640 supplemented with 10% FBS, sodium pyruvate and antibiotics. Cells were plated in the same medium at a density of 5000 cells per well into 96 well tissue culture plates, with outside wells vacant, on the day of assay.
Test compounds supplied in DMSO were diluted into DMSO at 500 times the desired final concentrations before dilution into culture media to 2 times final concentrations. Equal volumes of 2× compounds were added to the cells in 96 well plates and incubated at 37° C. for 3 days.
After 3 days plates were equilibrated to room temperature and equal volume of CellTiter-Glow Reagent (Promega) was added to the culture wells. The plates were agitated briefly and luminescent signal was measured with luminometer. The percent inhibition of the signal seen in cells treated with DMSO alone vs. cells treated with control compound was calculated and used to determine EC50 values (i.e., the concentration of a test compound that is required to obtain 50% of the maximum effect in the cells) for tested compounds, as shown in Example 41.

PIM1, sequence (P11309 whole entry): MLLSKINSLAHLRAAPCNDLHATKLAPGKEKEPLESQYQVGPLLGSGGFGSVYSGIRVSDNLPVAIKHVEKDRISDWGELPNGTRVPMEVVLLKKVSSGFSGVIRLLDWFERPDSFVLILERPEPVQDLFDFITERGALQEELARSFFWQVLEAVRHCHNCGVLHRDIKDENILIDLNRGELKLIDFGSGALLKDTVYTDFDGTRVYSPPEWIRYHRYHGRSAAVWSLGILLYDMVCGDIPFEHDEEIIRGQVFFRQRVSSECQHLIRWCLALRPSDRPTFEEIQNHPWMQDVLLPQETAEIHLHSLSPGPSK
PIM2, sequence (Q9P1W9 whole entry): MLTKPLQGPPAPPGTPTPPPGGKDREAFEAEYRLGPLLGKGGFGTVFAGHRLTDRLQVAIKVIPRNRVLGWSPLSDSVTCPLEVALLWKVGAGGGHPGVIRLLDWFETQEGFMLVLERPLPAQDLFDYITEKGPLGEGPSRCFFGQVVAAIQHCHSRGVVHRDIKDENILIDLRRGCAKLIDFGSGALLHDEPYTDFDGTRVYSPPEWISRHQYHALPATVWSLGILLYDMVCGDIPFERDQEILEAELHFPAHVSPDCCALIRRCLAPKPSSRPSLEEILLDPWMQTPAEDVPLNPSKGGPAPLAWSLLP

SMILES: Nc1ccc(-c2c(F)cccc2F)nc1-c1cc2c(N3CCC[C@@H](N)C3)ccnc2cn1 [Example 7, (R)-2-(4-(3-aminopiperidin-1-yl)-1,7-naphthyridin-6-yl)-6-(2,6-difluorophenyl)pyridin-3-amine]
IC50 [1]: 7 nM
IC50 [2]: 5 nM
IC50 [3]: 24 nM
EC50 [4]: 2800 nM

SMILES: Nc1ccc(-c2cc(C(=O)Nc3ccccc3)ccc2F)nc1-c1cc2c(N3CCC[C@H](N)C3)ccnc2cn1 [Example 12, (S)-3-(5-amino-6-(4-(3-aminopiperidin-1-yl)-1,7-naphthyridin-6-yl)pyridin-2-yl)-4-fluoro-N-phenylbenzamide]
IC50 [1]: 21 nM
IC50 [2]: 9 nM
IC50 [3]: 98 nM
EC50 [4]: 4100 nM

SMILES: N[C@H]1CCCN(c2ccnc3ccc(-c4nccc(-c5nccs5)n4)cc23)C1 [Example 28, (S)-1-(6-(4-(thiazol-2-yl)pyrimidin-2-yl)quinolin-4-yl)piperidin-3-amine]
IC50 [1]: 7 nM
IC50 [2]: 7 nM
IC50 [3]: 68 nM
EC50 [4]: 770 nM

SMILES: CC(C)NC(=O)c1ccc(F)c(-c2ccc(N)c(-c3cc4c(N5CCC[C@@H](N)C5)ccnc4cn3)n2)c1 [Example 8, (R)-3-(5-amino-6-(4-(3-aminopiperidin-1-yl)-1,7-naphthyridin-6-yl)pyridin-2-yl)-4-fluoro-N-isopropylbenzamide]
IC50 [1]: 21 nM
IC50 [2]: 16 nM
IC50 [3]: 81 nM
EC50 [4]: 4500 nM

SMILES: Nc1ccc(-c2cccs2)nc1-c1cc2c(N3CCC[C@H](N)C3)ccnc2cn1 [Example 13, (S)-2-(4-(3-aminopiperidin-1-yl)-1,7-naphthyridin-6-yl)-6-(thiophen-2-yl)pyridin-3-amine]
IC50 [1]: 4 nM
IC50 [2]: 3 nM
IC50 [3]: 54 nM
EC50 [4]: 4700 nM

SMILES: Nc1ccc(-c2ccc(F)cc2)nc1-c1cc2c(N3CCC[C@H](N)C3)ccnc2cn1 [Example 19, (S)-2-(4-(3-aminopiperidin-1-yl)-1,7-naphthyridin-6-yl)-6-(4-fluorophenyl)pyridin-3-amine]
IC50 [1]: 7 nM
IC50 [2]: 6 nM
IC50 [3]: 102 nM
EC50 [4]: 4000 nM

SMILES: CS(=O)(=O)c1ccc(-c2ccc(N)c(-c3cc4c(N5CCC[C@H](N)C5)ccnc4cn3)n2)cc1 [Example 24, (S)-2-(4-(3-aminopiperidin-1-yl)-1,7-naphthyridin-6-yl)-6-(4-(methylsulfonyl)phenyl)pyridin-3-amine]
IC50 [1]: 7 nM
IC50 [2]: 2 nM
IC50 [3]: 34 nM
EC50 [4]: 1200 nM

SMILES: Nc1cnc(-c2ccccc2F)nc1-c1cc2c(N3CCC[C@H](N)C3)ccnc2cn1 [Example 6, (S)-4-(4-(3-aminopiperidin-1-yl)-1,7-naphthyridin-6-yl)-2-(2-fluorophenyl)pyrimidin-5-amine]
IC50 [1]: 3 nM
IC50 [2]: 4 nM
IC50 [3]: 59 nM
EC50 [4]: 1800 nM

SMILES: CC(C)NC(=O)c1ccc(F)c(-c2ccc(N)c(-c3cc4c(N5CCC[C@H](N)C5)ccnc4cn3)n2)c1 [Example 10, (S)-3-(5-amino-6-(4-(3-aminopiperidin-1-yl)-1,7-naphthyridin-6-yl)pyridin-2-yl)-4-fluoro-N-isopropylbenzamide]
IC50 [1]: 13 nM
IC50 [2]: 3 nM
IC50 [3]: 48 nM
EC50 [4]: 3900 nM

SMILES: Nc1ccc(-c2nccs2)nc1-c1cc2c(N3CCC[C@H](N)C3)ccnc2cn1 [Example 5, (S)-2-(4-(3-aminopiperidin-1-yl)-1,7-naphthyridin-6-yl)-6-(thiazol-2-yl)pyridin-3-amine]
IC50 [1]: 4 nM
IC50 [2]: 1 nM
IC50 [3]: 9 nM
EC50 [4]: 840 nM

More lines, main results first:

IC50 [1]: 3 nM
IC50 [2]: 2 nM
IC50 [3]: 59 nM
SMILES: Nc1ccc(-c2ccccc2F)nc1-c1cc2c(N3CCC[C@H](N)C3)ccnc2cn1 [Example 11, (S)-2-(4-(3-aminopiperidin-1-yl)-1,7-naphthyridin-6-yl)-6-(2-fluorophenyl)pyridin-3-amine]
EC50 [4]: 5200 nM

IC50 [1]: 7 nM
IC50 [2]: 6 nM
IC50 [3]: 60 nM
SMILES: N[C@H]1CCCN(c2ccnc3cnc(-c4cccc(-c5nccs5)n4)cc23)C1 [Example 25, (S)-1-(6-(6-(thiazol-2-yl)pyridin-2-yl)-1,7-naphthyridin-4-yl)piperidin-3-amine]
EC50 [4]: 590 nM

IC50 [1]: 41 nM
IC50 [2]: 10 nM
IC50 [3]: 120 nM
SMILES: CN(C)C(=O)c1ccc(F)c(-c2ccc(N)c(-c3cc4c(N5CCC[C@H](N)C5)ccnc4cn3)n2)c1 [Example 16, (S)-3-(5-amino-6-(4-(3-aminopiperidin-1-yl)-1,7-naphthyridin-6-yl)pyridin-2-yl)-4-fluoro-N,N-dimethylbenzamide]
EC50 [4]: 4000 nM

IC50 [1]: 7 nM
IC50 [2]: 2 nM
IC50 [3]: 34 nM
SMILES: Nc1ccc(-c2ccc(S(N)(=O)=O)cc2)nc1-c1cc2c(N3CCC[C@H](N)C3)ccnc2cn1 [Example 23, (S)-4-(5-amino-6-(4-(3-aminopiperidin-1-yl)-1,7-naphthyridin-6-yl)pyridin-2-yl)benzenesulfonamide]
EC50 [4]: 7800 nM

IC50 [1]: 10 nM
IC50 [2]: 10 nM
IC50 [3]: 45 nM
SMILES: N[C@H]1CCCN(c2ccnc3ccc(-c4cccc(-c5nccs5)n4)cc23)C1 [Example 27, (S)-1-(6-(6-(thiazol-2-yl)pyridin-2-yl)quinolin-4-yl)piperidin-3-amine]
EC50 [4]: 940 nM
